# From patent publication US20230174660A1, “USE OF A MULTIMERIC ANTI-DR5 BINDING MOLECULE IN COMBINATION WITH A CANCER THERAPY FOR TREATING CANCER” (IGM Biosciences, Inc., priority 2020, published 2023)
# Key:
# [1] = tested on: DR5 agonist-resistant MDA-MB-231 cells; assay: Cell Titer Glo viability, Mab A + SMAC mimetic on DR5 agonist-resistant tumor cells (Example 8); assay type: cell-based
# A2058 = assay: Cell Titer Glo viability, Mab A + birinapant (Example 10); assay type: cell-based; conditions: A2058 (Melanoma)
# Procedure: (§1) Cell viability curves for combinations of anti-DR5 IgM Mab A with birinapant on A2058, BT-20, DV-90, ES-2, HCC15, HCT 116, HT 1080, KYSE 410, MEWO, OVCAR-5, SK-LU-1, SK-MEL-5, SNU-1, SW780, SW1353, and T24 are shown in FIGS. 19A, 19C, 19E, 19G, 19I, 19K, 19M, 19O, 19Q, 19S, 19U, 19W, 19Y, 19AA, 19AC, and 19AE, respectively. Synergy was determined as described in earlier examples.
# BT-20 = assay: as above; assay type: cell-based; conditions: BT-20 (TNBC)
# Procedure: as §1
# ES-2 = assay: as above; assay type: cell-based; conditions: ES-2 (Ovarian)
# Procedure: as §1
# HCC15 = assay: as above; assay type: cell-based; conditions: HCC15 (Lung)
# Procedure: as §1
# HCT 116 [2] = assay: as above; assay type: cell-based; conditions: HCT 116 (Colorectal)
# Procedure: as §1
# HT 1080 [3] = assay: as above; assay type: cell-based; conditions: HT 1080 (Fibrosarcoma)
# Procedure: as §1
# KYSE 410 = assay: as above; assay type: cell-based; conditions: KYSE 410 (Esophageal)
# Procedure: as §1
# MEWO = assay: as above; assay type: cell-based; conditions: MEWO (Melanoma)
# Procedure: as §1
# OVCAR-5 = assay: as above; assay type: cell-based; conditions: OVCAR-5 (Ovarian)
# Procedure: as §1
# SNU-1 = assay: as above; assay type: cell-based; conditions: SNU-1 (Gastric)
# Procedure: as §1
# SW1353 [4] = assay: as above; assay type: cell-based; conditions: SW1353 (Chondrosarcoma)
# Procedure: as §1
# SW780 = assay: as above; assay type: cell-based; conditions: SW780 (Bladder)
# Procedure: as §1
# T24 = assay: as above; assay type: cell-based; conditions: T24 (Bladder)
# Procedure: as §1
# 8305C = assay: Cell Titer Glo viability, Mab A + birinapant, head and neck tumor cell lines (Example 12); assay type: cell-based; conditions: 8305C head and neck cancer cell line
# Procedure: (§2) Exemplary cell viability curves for combinations of anti-DR5 IgM Mab A with birinapant on Detroit 562 and KYSE270 are shown in FIGS. 22A and 22C, respectively. Synergy was determined as described in earlier examples. […] The Average Bliss synergy scores for combinations of Mab A and birinapant on the various head and neck tumor cell lines are shown in Table 14.
# 8505C = assay: as above; assay type: cell-based; conditions: 8505C head and neck cancer cell line
# Procedure: as §2
# A253 = assay: as above; assay type: cell-based; conditions: A253 head and neck cancer cell line
# Procedure: as §2
# Detroit 562 = assay: as above; assay type: cell-based; conditions: Detroit 562 head and neck cancer cell line
# Procedure: as §2
# FaDu = assay: as above; assay type: cell-based; conditions: FaDu head and neck cancer cell line
# Procedure: as §2
# KYSE-70 = assay: as above; assay type: cell-based; conditions: KYSE-70 head and neck cancer cell line
# Procedure: as §2
# KYSE150 = assay: as above; assay type: cell-based; conditions: KYSE150 head and neck cancer cell line
# Procedure: as §2
# KYSE270 = assay: as above; assay type: cell-based; conditions: KYSE270 head and neck cancer cell line
# Procedure: as §2
# KYSE410 = assay: as above; assay type: cell-based; conditions: KYSE410 head and neck cancer cell line
# Procedure: as §2
# OE19 = assay: as above; assay type: cell-based; conditions: OE19 head and neck cancer cell line
# Procedure: as §2
# TE-1 = assay: as above; assay type: cell-based; conditions: TE-1 head and neck cancer cell line
# Procedure: as §2
# EBC-1 = assay: Cell Titer Glo viability, Mab A + SMAC mimetics (Example 13); assay type: cell-based; conditions: SMAC mimetic in combination with Mab A
# Procedure: (§3) Synergy was determined as described in earlier examples. The average Bliss synergy scores for combinations of Mab A and SMAC mimetic on the various tumor cell lines are shown in Table 15.
# HCT 116 [5] = assay: as above; assay type: cell-based; conditions: SMAC mimetic in combination with Mab A
# Procedure: as §3
# HT 1080 [6] = assay: as above; assay type: cell-based; conditions: SMAC mimetic in combination with Mab A
# Procedure: as §3
# OVCAR-4 = assay: as above; assay type: cell-based; conditions: SMAC mimetic in combination with Mab A
# Procedure: as §3
# SK-MEL-5 = assay: as above; assay type: cell-based; conditions: SMAC mimetic in combination with Mab A
# Procedure: as §3
# SW1353 [7] = assay: as above; assay type: cell-based; conditions: SMAC mimetic in combination with Mab A
# Procedure: as §3
# EBC-1 tumor cells = assay: EBC-1 non-small cell lung cancer (NSCLC) model (Example 11); assay type: in vivo, mice; conditions: birinapant 30 mg/kg i.p. every 3 days, alone or with Mab A 5 mg/kg i.v.; n=10 animals/group
# Excerpt: 3×10^6 EBC-1 tumor cells were implanted subcutaneously in the flanks of female BALB/c nude mice.
# SA3840 tumor fragments = assay: SA3840 osteosarcoma PDX model (Example 11); assay type: in vivo, mice; conditions: birinapant 30 mg/kg i.p., alone or with Mab A 5 mg/kg i.v.; n=5 animals/group
# MDA-MB-231 tumor cells = assay: Cell Titer Glo viability, Mab A + SMAC mimetic (Example 7); conditions: MDA-MB-231 cells; 72 hours
smiles,measurement,setting,value
"CC[C@H](NC(=O)[C@H](C)NC)C(=O)N1C[C@@H](O)C[C@H]1Cc1c(-c2[nH]c3cc(F)ccc3c2C[C@@H]2C[C@H](O)CN2C(=O)[C@H](CC)NC(=O)[C@H](C)NC)[nH]c2cc(F)ccc12 [birinapant, Birinapant]",single agent cytotoxicity (cell viability curves),[1],little to no cytotoxicity
same,Avg Bliss score,A2058,49
same,Avg Bliss score,BT-20,4
same,Avg Bliss score,ES-2,19
same,Avg Bliss score,HCC15,41
same,Avg Bliss score,HCT 116 [2],36
same,Avg Bliss score,HT 1080 [3],45
same,Avg Bliss score,KYSE 410,42
same,Avg Bliss score,MEWO,26
same,Avg Bliss score,OVCAR-5,17
same,Avg Bliss score,SNU-1,39
same,Avg Bliss score,SW1353 [4],18
same,Avg Bliss score,SW780,35
same,Avg Bliss score,T24,38
same,Average Bliss score,8305C,27
same,Average Bliss score,8505C,10
same,Average Bliss score,A253,26
same,Average Bliss score,Detroit 562,36
same,Average Bliss score,FaDu,16
same,Average Bliss score,KYSE-70,25
same,Average Bliss score,KYSE150,0.2
same,Average Bliss score,KYSE270,15
same,Average Bliss score,KYSE410,35
same,Average Bliss score,OE19,17
same,Average Bliss score,TE-1,29
same,Average Bliss score,EBC-1,39
same,Average Bliss score,HCT 116 [5],31
same,Average Bliss score,HT 1080 [6],30
same,Average Bliss score,OVCAR-4,14
same,Average Bliss score,SK-MEL-5,14
same,Average Bliss score,SW1353 [7],−0.6
same,mice that missed doses due to body weight loss,EBC-1 tumor cells,3 mice
same,animals that missed doses due to body weight loss,SA3840 tumor fragments,1 animal
same,single agent cytotoxicity (cell viability curves),MDA-MB-231 tumor cells,little to no cytotoxicity
